US20170239323A1, “ORITAVANCIN FORMULATIONS” (The Medicines Company, priority 2016, published 2017)

Assay: Reconstitution of Orbactiv 400 mg vial with aqueous HPCD: time to dissolve, pH and visual observation on storage
Type: physicochemical
Conditions: for visible precipitation: over 24 hours; for time to go into solution (clear, colorless solution): 57.14 mg/mL; for pH: oritavancin 50 mg/mL
Method: Reconstituting Orbactiv 400 mg (Oritavancin) with 50% HPCD. 5.915 g of HPCD was dissolved in 11.83 mL of water to make a 50 wt % aqueous solution. 8 mL of the 50% HPCD solution was added to a 400 mg vial of Orbactiv for a target oritavancin concentration of 50 mg/mL. […] The pH was measured and the solution was stored at room temperature, protected from light, and observed over 24 hours for signs of precipitation (Table 1).
Reconstituting Orbactiv 400 mg (Oritavancin) in 20% w/v HPCD aqueous solution. 3.095 g HPCD was dissolved in 15.474 mL water to make a 20% w/v solution (pH=6.05). 8 mL of the 20% w/v HPCD solution was added to a 400 mg vial of Orbactiv for a target oritavancin concentration of 50 mg/mL. […] The pH was measured and the solution was stored at room temperature, protected from light, and observed over 24 hours for signs of precipitation (Table 3).
Reconstituting Orbactiv 400 mg (Oritavancin) in 50% w/v HPCD aqueous solution, adjusting pH then diluting in saline. 6.269 g of HPCD was dissolved in 12.538 mL of water to make a 50% w/v solution (pH=7.23). Seven (7) mL of the 50% w/v solution was added to a 400 mg vial of Orbactiv for a target oritavancin concentration of 57.14 mg/mL. […] A 2 mL aliquot of 57.14 mg/mL was removed from the vial and placed in a small glass vial. The pH was adjusted to 6.5 using 1N NaOH. NaOH was added to the oritavancin solution in 5 μL increments and vortexed. Visual observations and pH were recorded (Table 6).
(§1) Reconstituting Orbactiv 400 mg (Oritavancin) in 50% w/v aqueous HPCD, adjusting pH then diluting in saline. 6.112 g of HPCD was dissolved in 12.224 mL of water to make a 50% w/v solution (pH=6.74). Seven (7) mL of the 50% w/v HPCD solution was added to a 400 mg vial of Orbactiv for a target oritavancin concentration of 57.14 mg/mL. […] A 3 mL aliquot of 57.14 mg/mL was removed from the vial and placed in a small glass vial. The pH was adjusted to 7 using 1N NaOH. NaOH was added to the oritavancin solution in 5 μL increments and vortexed. Visual observations and pH were recorded (Table 8).
as §1, with “20%” for “50%”, “3.555” for “6.112”, “17.775” for “12.224”, “(pH=6.88).” for “(pH=6.74).”, “recorded.” for “recorded”, “10).” for “8).”
Reconstituting Orbactiv 400 mg (Oritavancin) in 20% w/v aqueous HPCD then diluting in Hank's Balanced Salt Solution (HBSS). 2.641 g of HPCD was dissolved in 13.205 mL of water to make a 20% w/v solution (pH=6.70). Eight (8) mL of the 20% w/v solution was added to a 400 mg vial of Orbactiv for a target oritavancin concentration of 50 mg/mL. […] A 1.5 mL aliquot of 50 mg/mL was removed from the vial and placed in a small glass vial and pH measured. Diluted 2 mL of 50 mg/mL oritavancin solution in 8 mL of HBSS. Visual observations and pH were recorded. (Table 12).

CN[C@H](CC(C)C)C(=O)N[C@H]1C(=O)N[C@@H](CC(N)=O)C(=O)N[C@H]2C(=O)N[C@H]3C(=O)N[C@H](C(=O)N[C@H](C(=O)O)c4cc(O)cc(O)c4-c4cc3ccc4O)[C@H](O[C@H]3C[C@](C)(N)[C@@H](O)[C@H](C)O3)c3ccc(c(Cl)c3)Oc3cc2cc(c3O[C@@H]2O[C@H](CO)[C@@H](O)[C@H](O)[C@H]2O[C@H]2C[C@](C)(NCc3ccc(-c4ccc(Cl)cc4)cc3)[C@@H](O)[C@H](C)O2)Oc2ccc(cc2Cl)[C@H]1O [Oritavancin]
visible precipitation (50 mg/mL in 20% w/v HPCD solution): did not show any sign of visible precipitation | visible precipitation (50 mg/mL in 50% HPCD aqueous solution): did not show any sign of visible precipitation | time to go into solution (clear, colorless solution) (400 mg vial + 7 mL 20% w/v HPCD solution): ≤ 5 min | time to go into solution (clear, colorless solution) (400 mg vial + 7 mL 20% w/v HPCD solution, listed as Orbactiv): 5 min | time to go into solution (clear, colorless solution) (400 mg vial + 7 mL 50% w/v HPCD solution): ≤ 5 min | time to go into solution (clear, colorless solution) (400 mg vial + 7 mL 50% w/v HPCD solution, listed as Orbactiv): 5 min | pH (reconstituted with 20% w/v aqueous HPCD, RT, 0 hr): 3.85 | pH (reconstituted with 20% w/v aqueous HPCD, RT, 24 hr): 4.17 | pH (reconstituted with 50% w/v HPCD in water, 0 hr): 3.94
